Earlier results, collected in patent US10898467B2, “Veterinary formulations” (BOEHRINGER INGELHEIM ANIMAL HEALTH USA INC., priority 2015, dated 2021).

Conditions: beagle dogs, spot-on, 14C radiolabeled drug

For `N#Cc1nn(-c2c(Cl)cc(C(F)(F)F)cc2Cl)c(N)c1[S+]([O-])C(F)(F)F` (stereo not shown) [fipronil, 1-(2,6-Cl2-4-CF3phenyl)-3-CN-4-(SO—CF3)-5-NH2pyrazole], the “Time for which fipronil was persistently detected in the whole skin after treatment” value is listed as “up to 56 days”.
